Blank lines part the entries; values can stand above or below the compound they belong to.
Tests used:
[1] = Inhibition of Hepatitis C virus NS5B RNA-dependent RNA polymerase; parameters: species or system Hepacivirus hominis
[2] = Competitive inhibition of Hepatitis C virus NS5B RNA-dependent RNA polymerase; parameters: species or system Hepacivirus hominis
Hepatitis C virus [3] = assay: Inhibition of Hepatitis C virus con1 NS5B RNA-dependent RNA polymerase C316Y mutant; parameters: species or system Hepacivirus hominis
Hepatitis C virus [4] = assay: Antiviral activity against Hepatitis C virus genotype 1a assessed as inhibition of viral replication by replicon assay; assay type: functional, organism-based, Hepacivirus hominis; conditions: subtype 1a
Hepatitis C virus [5] = assay: Inhibition of Hepatitis C virus con1 NS5B RNA-dependent RNA polymerase; parameters: species or system Hepacivirus hominis
[6] = Inhibition of Hepatitis C virus genotype 1 NS5B RNA-dependent RNA polymerase
Hepatitis C virus [7] = assay: Antiviral activity against Hepatitis C virus genotype 1b assessed as inhibition of viral replication by replicon assay; assay type: functional, organism-based, Hepacivirus hominis
Hepatitis C virus [8] = assay: Antiviral activity against Hepatitis C virus assessed as inhibition of viral replication by replicon assay; assay type: functional, organism-based, Hepacivirus hominis
Hepatitis C virus [9] = assay: Inhibition of Hepatitis C virus genotype 1b NS5B RNA-dependent RNA polymerase M423 mutant; parameters: species or system Hepatitis C virus subtype 1b
Hepatitis C virus [10] = assay: Inhibition of Hepatitis C virus genotype 1b NS5B RNA-dependent RNA polymerase; parameters: species or system Hepatitis C virus subtype 1b
[11] = Half life in human liver microsomes
Hepatitis C virus [12] = assay: Antiviral activity against Hepatitis C virus genotype 1a infected in human HuH7 cells assessed as inhibition of viral replication by replicon assay; assay type: functional, organism-based, Hepacivirus hominis; conditions: subtype 1a, Huh-7
[13] = Cytotoxicity against human HuH7 cells; assay type: cell-based, Huh-7
[14] = Half life in monkey liver microsomes; conditions: rhesus monkey
Hepatitis C virus [15] = assay: Antiviral activity against Hepatitis C virus genotype 1b infected in human HuH7 cells assessed as inhibition of viral replication by replicon assay; assay type: functional, organism-based, Hepacivirus hominis; conditions: Huh-7
Hepatitis C virus [16] = assay: Inhibition of Hepatitis C virus genotype 1b NS5B RNA-dependent RNA polymerase P495L mutant; parameters: species or system Hepatitis C virus subtype 1b

IC50 [1]: 1200 nM
Structure (SMILES): CO[C@@H]1[C@H](O)[C@@H](CO)O[C@H]1n1ccc(N)nc1=O

Structure (SMILES): [N-]=[N+]=N[C@]1(CO)O[C@@H](n2ccc(N)nc2=O)[C@H](O)[C@@H]1O [4'-AZIDOCYTIDINE]
Ki [2]: 40 nM

Structure (SMILES): CNC(=O)c1c(-c2ccc(F)cc2)oc2cc(N(CCO)S(C)(=O)=O)c(C3CC3)cc12 [NESBUVIR]
IC50 (Hepatitis C virus [3]): 2160 nM | EC50 (Hepatitis C virus [4]): 5 nM | IC50 (Hepatitis C virus [5]): 0.8 nM | IC50 [6]: 10 nM | EC50 (Hepatitis C virus [7]): 9 nM

EC50 [1]: 3500 nM
Structure (SMILES): C[C@@]1(O)[C@H](O)[C@@H](CO)O[C@H]1n1cnc2c(=O)[nH]c(N)nc21 [2'-B-METHYL-GUANOSINE]

EC50 (Hepatitis C virus [4]): 290 nM | EC50 (Hepatitis C virus [7]): 2 nM
Structure (SMILES): COC[C@H]1C[C@@](Cn2cccn2)(C(=O)O)N(C(=O)c2ccc(C(C)(C)C)c(OC)c2)[C@H]1c1nccs1 [GSK-625433]

IC50 [1]: 3800 nM
Structure (SMILES): CO[C@@H]1[C@H](O)[C@@H](CO)O[C@H]1n1cnc2c(O)nc(N)nc21

EC50 (Hepatitis C virus [8]): 70 nM
Structure (SMILES): C[C@@]1(O)[C@H](O)[C@@H](CO)O[C@H]1n1cc(F)c2c(N)ncnc21

IC50 [1]: 350 nM
Structure (SMILES): CO[C@@H]1[C@H](O)[C@@H](CO)O[C@H]1n1ccc2c(O)nc(N)nc21

IC50 [1]: 80 nM
Structure (SMILES): Nc1ncnc2c1ccn2[C@@H]1O[C@H](CO)C[C@H]1O

Structure (SMILES): C[C@H]1CC[C@H](C(=O)N(c2cc(-c3ccccc3)sc2C(=O)O)[C@H]2CC[C@H](O)CC2)CC1
IC50 (Hepatitis C virus [9]): 450 nM | IC50 (Hepatitis C virus [10]): 17 nM

IC50 [1]: 80 nM
Structure (SMILES): Nc1nc2c(ncn2[C@@H]2O[C@H](CO)C[C@H]2O)c(=O)[nH]1

half-life [11]: > 1 h | EC50 (Hepatitis C virus [12]): 52 nM | half-life [14]: > 1 h | EC50 (Hepatitis C virus [15]): 3 nM
Structure (SMILES): CS(=O)(=O)Nc1ccc2c(c1)S(=O)(=O)N=C(C1=C(O)[C@@H]3[C@H]4CC[C@H](C4)[C@@H]3N(Cc3ccc(F)cc3)C1=O)N2 [SETROBUVIR]
CC50 [13]: 100000 nM

IC50 [1]: 80 nM
Structure (SMILES): Nc1ccn([C@@H]2O[C@H](CO)C[C@H]2O)c(=O)n1

EC50 (Hepatitis C virus [8]): 72 nM | IC50 [1]: 95 nM
Structure (SMILES): O=C(O)/C=C/c1ccc(NC(=O)C2(NC(=O)c3ccc4c(c3)nc(-c3ccoc3)n4C3CCCCC3)CCCC2)cc1

IC50 [1]: 80 nM
Structure (SMILES): Nc1nc(O)c2ccn([C@@H]3O[C@H](CO)C[C@H]3O)c2n1

IC50 [1]: 280 nM
Structure (SMILES): O=C(O)/C=C/c1ccc(NC(=O)CNC(=O)c2ccc3c(c2)nc(-c2ccoc2)n3C2CCCCC2)cc1

Structure (SMILES): O=C(O)c1ccc2c(c1)nc(-c1ccc(OCc3cc(N4CCCC4=O)ccc3-c3ccc(Cl)cc3)cc1F)n2C1CCCCC1
IC50 (Hepatitis C virus [16]): 1500 nM

Reference: ChEMBL document CHEMBL2021855, “Hepatitis C RNA-dependent RNA polymerase inhibitors: a review of structure-activity and resistance relationships; different scaffolds and mutations” (Bioorg Med Chem, 2012)
